Measurements from US20090287072A1, “POLYMER COMPOSITIONS, COATINGS AND DEVICES, AND METHODS OF MAKING AND USING THE SAME” (THE REGENTS OF THE UNIVERSITY OF MICHIGAN, priority 2005, published 2009).

Assays:
[1] = Catalytic NO generation by ditelluride compounds via chemiluminescence NO analyzer (NOA); format: biochemical
Description: FIG. 19A also depicts other measurements of catalytic NO generation by ditelluride compounds. […] The rate of NO generation slowly decreases with time to reach a steady-state that lasts until all of the GSNO is consumed.

[2] = NO generation by diorgano ditelluride from GSNO and GSH monitored by NOA; format: biochemical; conditions: GSNO and GSH in PBS pH 7.4, EDTA, ambient temperature; FIG. 13

## O=C(O)c1ccc([Te][Te]c2ccc(C(=O)O)s2)s1 [DTDTCA 2, 5,5′-ditelluro-2,2′-dithiophenecarboxylic acid]
[1]; 2.5 μM catalyst, GSNO 25 μM, GSH 100 μM in PBS buffer, FIG. 19A
  NO signal upon adding catalytic amounts: relatively large signal appears quickly
[1]; absence of RSH, FIG. 19B
  RSNO decomposition to NO without RSH: decomposes RSNO to NO even in the absence of RSH

## O=C(O)CCCCC[Te][Te]CCCCCC(=O)O [compound 2]
[2]
  NO generated relative to amount of catalyst used: much more NO than the amount of diorgano ditelluride
